Data published in patent US4108991A, “N-aminosulfenyl derivatives of aldicarb” (priority 1976, dated 1978).

Columns and labels:
Granary Weevil [1] = assay: Initial contact activity, granary weevil; type: in vivo
Mexican bean beetle [2] = assay: Residual (7-day) contact activity, Mexican bean beetle; type: in vivo, Epilachna varivestis Muls.; conditions: Epilachna varivestis, 168 h
Method: (§1) Initial Contact Activity: One half gram of test compound was dissolved in 40 ml of acetone and this solution was dispersed in 360 ml of water containing one drop of isooctylphenyl polyethoxyethanol. Aliquots of this solution, which corresponds to 1250 ppm of active ingredient, were diluted with an appropriate amount of water to provide solutions containing various concentrations of active ingredient. Test organisms and techniques were as follows: The activity against the Mexican bean beetle (Epilachna varivestis Muls.) and the southern armyworm (Spodoptera eridania [Cram.]) was evaluated by dipping the leaves of pinto bean plants into the test solution and infesting the leaves with the appropriate immature-form insects when the foiliage had dried; the activity against the pea aphid (Acyrthosiphon pisum [Harris]) was evaluated on broad bean plants whose leaves were dipped before infestation with adult aphids; the activity against two-sotted spider mites (Tetranychus urticae Koch) was evaluated on pinto bean plants whose leaves were dipped after infestation with adult mites; the activity against the milkweed bug (Oncopeltus fasciatus [Dallas]), and the plum curculio (Conotrachelus nenuphar [Herbst]) was evaluated by spraying the test solutions into glass dishes or jars containing the adult insects; the activity against the confused flour beetle (Tribolium confusum duVal) was evaluated by introducing the insects into glass dishes which had been previously sprayed with test solution and allowed to dry. All organisms in the test were maintained in a holding room at 80° F and 50% relative humidity for an exposure period of 48 hours. At the end of this time, the dead and living insects or mites were counted, and the percent kill was calculated.
(§2) Residual Contact Activity: The residual contact activity of the compounds was determined on the same organisms using the techniques described above, except that in each case the treated surface was allowed to dry and was exposed to normal light and air for seven days before introduction of the mites or insects.

Confused flour beetle [3] = assay: Initial contact activity, sprayed dishes, confused flour beetle; type: in vivo, Tribolium confusum duVal; conditions: Tribolium confusum, 48 h, read-out: Percent Kill
Method: as §1

Pea aphid = assay: Systemic activity, soil-watering, pea aphid; type: in vivo, Acyrthosiphon pisum [Harris]
Method: as §1
(§3) Systemic Activity: Systemic activity was measured using a soil-watering technique. Test organisms were Mexican bean beetle, southern armyworm, pea aphid, and mites on plants as described above in this Example. With appropriate precautions to avoid contact of the solution with the test plant surfaces, 25 ml of a test solution, prepared as above to contain the desired amount of active ingredient, were poured evenly over the surface of the soil in which the plant was growing. The treated plants were maintained under normal growing conditions for three days to permit translocation of the toxicant, after which the leaves were infested. Two days after infestation, counts of living and dead insects were made.

Granary Weevil [4] = assay: Residual (7-day) contact activity, granary weevil; type: in vivo; conditions: Sitophilus granarius, 168 h, read-out: Percent Kill
[5] = Toxicity to rats, acute oral median lethal dose (LD50), Method A; type: in vivo, young female albino rats, derived from Sprague-Dawley stock; conditions: in vivo, rat, corn oil, 14 days observation
Method: Method A: Young female albino rats, derived from Sprague-Dawley stock and weighing between 175 and 200 g, were used. An initial screening was conducted to determine the general level of toxicity of the test compounds and to establish the dosing range to be used with each compound. The test materials were suspended in corn oil and administered directly into the stomachs of the rats, using a hypodermic syringe equipped with a ball-tipped intubating needle. A range of dosing levels was employed utilizing two rats at each level. […] This method was used to determine the toxicity to rats of the compounds of Examples I, II, and III and aldicarb.

Mexican bean beetle [6] = assay: Initial contact activity, leaf dip, Mexican bean beetle; type: in vivo, Epilachna varivestis Muls.
Method: as §1

Confused flour beetle [7] = assay: Residual (7-day) contact activity, confused flour beetle; type: in vivo, Tribolium confusum duVal; conditions: Tribolium confusum, 168 h, read-out: Percent Kill
Method: as §1, §2

Plum curculio = assay: Initial contact activity, spray, plum curculio; type: in vivo, Conotrachelus nenuphar [Herbst]; conditions: Conotrachelus nenuphar, 48 h, read-out: Percent Kill
Method: as §1

Southern armyworm = assay: Systemic activity, soil-watering, southern armyworm; type: in vivo, Spodoptera eridania [Cram.]; conditions: Spodoptera eridania, 48 h, read-out: Percent Kill
Method: as §1, §3

Milkweed bug [8] = assay: Residual (7-day) contact activity, milkweed bug; type: in vivo, Oncopeltus fasciatus [Dallas]; conditions: for Percent Kill: residual 7-day, MWB
Method: as §1, §2

Milkweed bug [9] = assay: Initial contact activity, spray, milkweed bug; type: in vivo, Oncopeltus fasciatus [Dallas]
Method: as §1

Two-spotted spider mite [10] = assay: Systemic activity, soil-watering, two-spotted spider mite; type: in vivo, Tetranychus urticae Koch; conditions: Tetranychus urticae, 48 h
Method: as §1, §3

Two-spotted spider mite [11] = assay: Initial contact activity, leaf dip, two-spotted spider mite; type: in vivo, Tetranychus urticae Koch; conditions: for Percent Kill: initial, SM, 48 hours, 2880 min
Method: as §1

CNC(=O)ON=CC(C)(C)SC [Aldicarb, 2-methyl-2-(methylthio)propanal O-(methylcarbamoyl)oxime]
mortality at 20 ppm (Granary Weevil [1]; Sitophilus granarius, 48 h, read-out: Percent Kill, initial, GW, 20 PPM, 48 hours): 20% | mortality at 39 ppm (Granary Weevil [1]; Sitophilus granarius, 48 h, read-out: Percent Kill, initial, GW, 39 PPM, 48 hours): 40% | mortality at 156 ppm (Granary Weevil [1]; Sitophilus granarius, 48 h, read-out: Percent Kill, initial, GW, 156 PPM, 48 hours): 100% | mortality at 312 ppm (Granary Weevil [1]; Sitophilus granarius, 48 h, read-out: Percent Kill, initial, GW, 312 PPM, 48 hours): 100% | mortality at 1250 ppm (Granary Weevil [1]; Sitophilus granarius, 48 h, read-out: Percent Kill, initial, GW, 1250 PPM, 48 hours): 100% | Percent Kill (Granary Weevil [1]; initial, GW, 156 PPM, 48 hours, 2880 min): 97.5% | mortality at 625 ppm (Mexican bean beetle [2]; read-out: Percent Kill, residual 7-day, BB, 625 PPM): 47% | mortality at 1250 ppm (Mexican bean beetle [2]; read-out: Percent Kill, residual 7-day, BB, 1250 PPM): 100% | mortality at 156 ppm (Confused flour beetle [3]): 5% | mortality at 312 ppm (Confused flour beetle [3]): 10% | mortality at 1250 ppm (Confused flour beetle [3]): 90% | mortality at 5 ppm (Pea aphid; Acyrthosiphon pisum, 48 h, read-out: Percent Kill, systemic, PA, 5 PPM): 100% | mortality at 10 ppm (Pea aphid; Acyrthosiphon pisum, 48 h, read-out: Percent Kill, systemic, PA, 10 PPM): 90% | mortality at 39 ppm (Pea aphid; Acyrthosiphon pisum, 48 h, read-out: Percent Kill, systemic, PA, 39 PPM): 100% | mortality at 321 ppm (Pea aphid; Acyrthosiphon pisum, 48 h, read-out: Percent Kill, systemic, PA, 321 PPM): 100% | Percent Kill (Pea aphid; systemic, PA, 10 PPM, 2880 min): 100% | mortality at 312 ppm (Granary Weevil [4]): 3.3% | mortality at 1250 ppm (Granary Weevil [4]): 0% | LD50 at 336 h [5]: 0.5 mg/kg | mortality at 20 ppm (Mexican bean beetle [6]; Epilachna varivestis, foliar, 48 h, read-out: Percent Kill, initial, BB, 20 PPM, 48 hours): 0% | mortality at 39 ppm (Mexican bean beetle [6]; Epilachna varivestis, foliar, 48 h, read-out: Percent Kill, initial, BB, 39 PPM, 48 hours): 40% | mortality at 156 ppm (Mexican bean beetle [6]; Epilachna varivestis, foliar, 48 h, read-out: Percent Kill, initial, BB, 156 PPM, 48 hours): 89% | mortality at 312 ppm (Mexican bean beetle [6]; Epilachna varivestis, foliar, 48 h, read-out: Percent Kill, initial, BB, 312 PPM, 48 hours): 95% | mortality at 625 ppm (Mexican bean beetle [6]; Epilachna varivestis, foliar, 48 h, read-out: Percent Kill, initial, BB, 625 PPM, 48 hours): 100% | mortality at 1250 ppm (Mexican bean beetle [6]; Epilachna varivestis, foliar, 48 h, read-out: Percent Kill, initial, BB, 1250 PPM, 48 hours): 100% | Percent Kill (Mexican bean beetle [6]; initial, BB, 156 PPM, 48 hours, 2880 min): 91% | mortality at 312 ppm (Confused flour beetle [7]): 0% | mortality at 1250 ppm (Confused flour beetle [7]): 0% | mortality at 10 ppm (Plum curculio): 10% | mortality at 39 ppm (Plum curculio): 35% | mortality at 156 ppm (Plum curculio): 100% | mortality at 1250 ppm (Plum curculio): 100% | mortality at 39 ppm (Southern armyworm): 50% | mortality at 312 ppm (Southern armyworm): 100% | mortality at 625 ppm (Southern armyworm): 100% | mortality at 156 ppm (Milkweed bug [8]; Oncopeltus fasciatus, 168 h, read-out: Percent Kill, residual 7-day, MWB, 156 PPM): 15% | mortality at 312 ppm (Milkweed bug [8]; Oncopeltus fasciatus, 168 h, read-out: Percent Kill, residual 7-day, MWB, 312 PPM): 80% | mortality at 625 ppm (Milkweed bug [8]; Oncopeltus fasciatus, 168 h, read-out: Percent Kill, residual 7-day, MWB, 625 PPM): 100% | mortality at 1250 ppm (Milkweed bug [8]; Oncopeltus fasciatus, 168 h, read-out: Percent Kill, residual 7-day, MWB, 1250 PPM): 100% | Percent Kill (Milkweed bug [8]; 312 PPM): 70% | Percent Kill (Milkweed bug [8]; 1250 PPM): 100% | mortality at 5 ppm (Milkweed bug [9]; Oncopeltus fasciatus, 48 h, read-out: Percent Kill, initial, MWB, 5 PPM, 48 hours): 30% | mortality at 10 ppm (Milkweed bug [9]; Oncopeltus fasciatus, 48 h, read-out: Percent Kill, initial, MWB, 10 PPM, 48 hours): 55% | mortality at 20 ppm (Milkweed bug [9]; Oncopeltus fasciatus, 48 h, read-out: Percent Kill, initial, MWB, 20 PPM, 48 hours): 95% | mortality at 39 ppm (Milkweed bug [9]; Oncopeltus fasciatus, 48 h, read-out: Percent Kill, initial, MWB, 39 PPM, 48 hours): 100% | mortality at 156 ppm (Milkweed bug [9]; Oncopeltus fasciatus, 48 h, read-out: Percent Kill, initial, MWB, 156 PPM, 48 hours): 100% | mortality at 1250 ppm (Milkweed bug [9]; Oncopeltus fasciatus, 48 h, read-out: Percent Kill, initial, MWB, 1250 PPM, 48 hours): 100% | Percent Kill (Milkweed bug [9]; initial, MWB, 10 PPM, 48 hours, 2880 min): 70% | mortality at 2.5 ppm (Two-spotted spider mite [10]; read-out: Percent Kill, systemic, SM, 2.5 PPM): 4.6% | mortality at 10 ppm (Two-spotted spider mite [10]; read-out: Percent Kill, systemic, SM, 10 PPM): 100% | mortality at 39 ppm (Two-spotted spider mite [10]; read-out: Percent Kill, systemic, SM, 39 PPM): 100% | mortality at 5 ppm (Two-spotted spider mite [11]; Tetranychus urticae, foliar, 48 h, read-out: Percent Kill, initial, SM, 5 PPM, 48 hours): 21% | mortality at 10 ppm (Two-spotted spider mite [11]; Tetranychus urticae, foliar, 48 h, read-out: Percent Kill, initial, SM, 10 PPM, 48 hours): 88% | mortality at 20 ppm (Two-spotted spider mite [11]; Tetranychus urticae, foliar, 48 h, read-out: Percent Kill, initial, SM, 20 PPM, 48 hours): 100% | mortality at 39 ppm (Two-spotted spider mite [11]; Tetranychus urticae, foliar, 48 h, read-out: Percent Kill, initial, SM, 39 PPM, 48 hours): 100% | mortality at 156 ppm (Two-spotted spider mite [11]; Tetranychus urticae, foliar, 48 h, read-out: Percent Kill, initial, SM, 156 PPM, 48 hours): 100% | mortality at 1250 ppm (Two-spotted spider mite [11]; Tetranychus urticae, foliar, 48 h, read-out: Percent Kill, initial, SM, 1250 PPM, 48 hours): 100% | Percent Kill (Two-spotted spider mite [11]; 10 PPM): 100% | Percent Kill (Two-spotted spider mite [11]; 1250 PPM): 95%
